Data published in US20240368566A1, “PYK2-DERIVED PEPTIDES FOR INHIBITING INVADOPODIA-MEDIATED CANCER METASTASIS” (BAR-ILAN UNIVERSITY, priority 2023, published 2024).

Experiments:
cortactin SH3 domain = target: T1, cortactin SH3 domain (Mus musculus, UniProt Q60598); test: NMR affinity determination, binding of peptides to purified cortactin-SH3; conditions: binding to cortactin SH3 in vitro
T1 construct: nucleotides1468-1641); 6xHis (N, cleaved yes); made in house; host or cells: E. coli BL21 (DE3)
Description: The DNA sequence encoding the SH3 domain of the mouse cortactin SH3 domain (GenBank ID U03184; nucleotides1468-1641) was sub-cloned into a pET-28a plasmid (Novagen, Merck) in frame with the cleavable N-terminal 6×His tag. Isotopically labeled cortactin-SH3 for heteronuclear NMR experiments was expressed in transformed E. coli BL21 cells (DE3) grown in the presence of kanamycin (50 mg/1) and chloramphenicol (34 mg/1) at 37° C. in M9 minimal medium. For ^15N (^13C) labeling the medium contained 1 g/L of ^15NH4Cl (4 g/L ^13C6-glucose), and 0.25 g/l of appropriately labeled Celtone Base Powder (Cambridge Isotope Laboratories, Andover, MA) was added. For triple-labeled ^2H,^13C,^15N—SH3, expression began in 100 ml of the above medium grown to an OD600 of 0.4-0.5 and gently centrifuged. Pellets were then resuspended in 500 ml filter-sterilized D20-based ^15N-M9 supplemented with ^2H7-^13C6-glucose (2 g/1) and DCN-Isogro (0.25 g/1) to reach a final OD600 of −0.1. In both cases cells were then grown at 37° C. and induced with 0.5 mM isopropyl β-D-1-thiogalactopyranoside (IPTG) upon reaching OD600-0.8, followed by overnight growth at 27° C. To purify the SH3 domain, cells were harvested by centrifugation, subjected to a single freeze-thaw cycle, and resuspended in lysis buffer (50 mM NaPi pH 8.0, 300 mM NaCl, 1 mM dithiothreitol (DTT), 100 ml per liter of culture) supplemented with 1 tablet EDTA-free protease inhibitor cocktail (Merck) and benzamidine (5 mM). Cells were lysed by French press, followed by addition of benzamidine (final concentration 10 mM) and phenylmethylsulfonyl fluoride (PMSF, 1 mM), and the lysate was clarified by centrifugation. The supernatant was loaded on a HisTrap HP column (GE Healthcare, Chicago, IL, USA) equilibrated with lysis buffer and the protein eluted through a gradient (Buffer B: 50 mM NaPi pH 8.0, 100 mM NaCl, 300 mM imidazole, 1 mM DTT). To the fraction eluting at ˜40% B purified tobacco etch virus (TEV) protease (1:30 mol:mol) was added, and the mixture dialyzed overnight at 4° C. against dialysis buffer (50 mM NaPi at pH 8.0, 100 mM NaCl, 1 mM DTT). The dialysate was brought to a final concentration of ˜5 mM imidazole, filtered, and loaded onto a HisTrap column. The collected flowthrough was dialyzed against 20 mM Tris (pH 7.5), 1 mM DTT for 3 h to reach a final concentration of 10 mM NaCl. […]
Purified SH3 was dialyzed against NMR sample buffer (30 mM NaPi, pH ˜6.5) and concentrated to the desired concentration in an Amicon concentration tube (3 kDa MWCO) (Merck). […] For quantitative titrations, purchased peptides were dissolved in 100-300 μl NMR sample buffer, and samples at varying (SH3:PRR2 1:0-1:6, SH3 concentration constant at 0.1 mM) ratios were prepared. Fittings were performed with 5-6 measured points. […]

[1] = system: interaction between Pyk2 and cortactin in invadopodia; test: Acceptor photobleaching FRET assay; assay type: cell-based, human; conditions: 0.1, 1, 5 μM peptide; mature matrix-degrading invadopodia
Description: Acceptor photobleaching experiments were performed as described in Genna et al., 2018 (supra). In brief, cortactin-TagRFP MDA-MB-231 cells were plated on Alexa 405 gelatin in a medium containing Pyk2-PRR or scrambled control peptides at 0.1, 1, and 5 μM concentration, fixed, and immunostained with pY402-Pyk2/Alexa Fluor 488-goat anti-rabbit (donor) and cortactin/Alexa Fluor 555-goat anti-mouse (acceptor). As a control, cells were stained with Tks5/Alexa Fluor 488-goat anti-rabbit (donor) and cortactin/Alexa Fluor 555-goat anti-mouse (acceptor). Co-localization of cortactin with degradation holes in Alexa 405-labeled gelatin was used to identify mature degrading invadopodia. For all FRET experiments, cells were imaged in PBS at room temperature on a laser-scanning inverted confocal microscope (Zeiss LSM780; 60×, NA 1.4, oil objective). A region of interest surrounding invadopodia was bleached using 100% 561-nm laser power (acceptor channel), and images were acquired in both the 488 nm and the 561 nm channels before and after bleaching. FRET efficiency was calculated as the E=1−(donor pre/donor post) in background-subtracted images and was corrected for fluctuations in laser power and donor bleaching in ImageJ.

cortactin tyrosine Y421 = test: Immunofluorescence analysis of cortactin tyrosine phosphorylation at invadopodium precursors; assay type: cell-based, human; conditions: EGF stimulation 3 min; all concentrations (0.1, 1, 5 μM)
Description: Twenty-four hours before each experiment, cells were plated on fibronectin/gelatin unlabeled matrix in the presence of a Pyk2-PRR or control peptides at 0.1, 1, and 5 μM concentration and allowed to attach for eight hours. Cells were then starved in DMEM/0.5% FBS for 16 h in the presence of peptides and stimulated with 2.5 nM EGF for 3 min or left un-stimulated (0 min EGF). Cells were fixed and stained with mouse phospho-specific cortactin antibody (pY421). To image invadopodia Z-plane, focus was on the ventral surface of the cell where the leading edge containing cortactin is focused. The pixels corresponding to invadopodia dots were then analyzed, not the whole cell. The intensity (mean grey value (mgv) minus background) of cortactin-TagRFP and pY421-cortactin at invadopodium precursors was quantified. The pY421-cortactin/cortactin-TagRFP ratio was calculated as a measure of tyrosine-phosphorylated cortactin at cortactin-rich puncta. Data were normalized to resting cells (0 min EGF) and presented as the relative fold change in cortactin tyrosine phosphorylation.

T1 sequence (Q60598 490-546): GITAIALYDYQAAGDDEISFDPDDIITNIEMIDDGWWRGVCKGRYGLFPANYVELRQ

`C[C@H](NC(=O)[C@@H](N)[C@@H](C)O)C(=O)N[C@@H](Cc1ccccc1)C(=O)N[C@@H](CCC(N)=O)C(=O)N[C@@H](CCC(=O)O)C(=O)N1CCC[C@H]1C(=O)N1CCC[C@H]1C(=O)N1CCC[C@H]1C(=O)N[C@@H](CCCCN)C(=O)N1CCC[C@H]1C(=O)N[C@@H](CO)C(=O)N[C@@H](CCCNC(=N)N)C(=O)N1CCC[C@H]1C(=O)N[C@@H](CCCCN)C(=O)N[C@@H](Cc1ccc(O)cc1)C(=O)N[C@@H](CCCNC(=N)N)C(=O)N1CCC[C@H]1C(=O)N1CCC[C@H]1C(=O)N1CCC[C@H]1C(=O)O` [Pyk2-PRR2, TAFQEPPPKPSRPKYRPPP] was tested, and the “higher affinity than Pyk2-PRR3” value (cortactin SH3 domain) was 16 fold, the “interaction between Pyk2 and cortactin in invadopodia (FRET)” value [1] was “significantly inhibited” and the “cortactin Y421 phosphorylation” value (cortactin tyrosine Y421) was “completely abolished”.
